In brackets after ≈: the same amount, converted by molar mass. Like-named read-outs stand apart in the source and are kept apart here.
Columns and labels:
Solubility pH 7 = conditions: pH 7, aqueous buffer
[1] = molecular target: T1, immunoproteasome subunit LMP7 (Homo sapiens, UniProt P28062); test: Proteasome active-site ELISA (ProCISE), LMP7, MOLT-4 lysate; assay type: biochemical
T1 construct: Lysate from the human acute lymphoblastic leukemia cell line, MOLT-4; endogenous in cells; host or cells: MOLT-4
Procedure: (§1) Test compounds were serially diluted in DMSO at 100× concentration, then diluted to 10× in aqueous hypotonic lysis buffer. Lysate from the human acute lymphoblastic leukemia cell line, MOLT-4, was treated for 1 hour at 25° C. with compound at a final 1× concentration. […] Following, lysate was denatured in guanidine hydrochloride, and subunits bound to probe were isolated with streptavidin-conjugated sepharose beads. Individual subunits (e.g., β5, LMP7, LMP2, MECL-1) were probed with subunit-specific primary antibodies, followed by HRP-conjugated secondary antibodies. A chemiluminescent substrate was used to generate signal associated with HRP binding, which was detected on a plate reader. Luminescent signal was normalized to protein content, then, percent activity calculated relative to DMSO-treated controls to generate IC50 curves.

[2] = molecular target: T2, proteasome subunit β5 (beta5) (Homo sapiens, UniProt P28074); test: Proteasome active-site ELISA (ProCISE), beta5, MOLT-4 lysate; assay type: biochemical; conditions: MOLT4 lysate, human, 1 h continuous treatment, 25° C.
T2 construct: Lysate from the human acute lymphoblastic leukemia cell line, MOLT-4; endogenous in cells; host or cells: MOLT-4
Procedure: as §1

[3] = MOLT4 lysate, 1 h continuous treatment, 25° C.
[4] = read-out: ProCISE LMP7 MOLT4 lysate Hu 1 h CONT: IC50, 1 h continuous treatment, 25° C.
[5] = read-out: ProCISE beta5 MOLT4 lysate Hu 1 h CONT: IC50

Row | solubility (Solubility pH 7) | IC50 [1, 3] | IC50 [2] | IC50 [1, 4] | IC50 [2, 5] | Structure (SMILES)
1 | 1130 µg/mL (≈ 1.93 mM) | 59.9 nM | 1750 nM | – | – | COc1ccc(C[C@H](NC(=O)[C@@H](C)NC(=O)[C@H]2CC[C@](C)(O)CC2)C(=O)N[C@@H](CC2=CCCC2)C(=O)[C@@]2(C)CO2)cc1 [Compound C-1087, (1r,4R)-N-((R)-1-(((S)-1-(((S)-3-(Cyclopent-1-en-1-yl)-1-((R)-2-methyloxiran-2-yl)-1-oxopropan-2-yl)amino)-3-(4-methoxyphenyl)-1-oxopropan-2-yl)amino)-1-oxopropan-2-yl)-4-hydroxy-4-methylcyclohexanecarboxamide]
2 | 2350 µg/mL (≈ 3.75 mM) | 45.3 nM | 409 nM | – | – | COc1ccc(C[C@H](NC(=O)[C@@H](NC(=O)CN2CCOCC2)C2COC2)C(=O)N[C@@H](CC2=CCCCC2)C(=O)[C@@]2(C)CO2)cc1 [Compound C-1138, (S)-N-((S)-3-(Cyclohex-1-en-1-yl)-1-((R)-2-methyloxiran-2-yl)-1-oxopropan-2-yl)-3-(4-methoxyphenyl)-2-((S)-2-(2-morpholinoacetamido)-2-(oxetan-3-yl)acetamido)propanamide]
3 | 2660 µg/mL (≈ 4.55 mM) | 34.6 nM | 1480 nM | – | – | COc1ccc(C[C@H](NC(=O)[C@@H](C)NC(=O)[C@H]2CC[C@H](O)CC2)C(=O)N[C@@H](CC2=CCCC2)C(=O)[C@@]2(C)CO2)cc1O [Compound C-1065, (1r,4R)-N-((R)-1-(((S)-1-(((S)-3-(cyclopent-1-en-1-yl)-1-((R)-2-methyloxiran-2-yl)-1-oxopropan-2-yl)amino)-3-(3-hydroxy-4-methoxyphenyl)-1-oxopropan-2-yl)amino)-1-oxopropan-2-yl)-4-hydroxycyclohexanecarboxamide]
4 | 790 µg/mL (≈ 1.43 mM) | 155 nM | 526 nM | – | – | COc1ccc(C[C@H](NC(=O)[C@H](C)NC(=O)[C@@H]2CCCO2)C(=O)N[C@@H](Cc2ccccc2)C(=O)[C@@]2(C)CO2)cc1 [Compound C-1167, (S)-N-((S)-1-(((S)-3-(4-methoxyphenyl)-1-(((S)-1-((R)-2-methyloxiran-2-yl)-1-oxo-3-phenylpropan-2-yl)amino)-1-oxopropan-2-yl)amino)-1-oxopropan-2-yl)tetrahydrofuran-2-carboxamide]
5 | 2050 µg/mL (≈ 3.49 mM) | 34.6 nM | 2230 nM | – | – | COc1ccc([C@@H](O)[C@H](NC(=O)[C@@H](C)NC(=O)[C@H]2CC[C@H](O)CC2)C(=O)N[C@@H](CC2CCCC2)C(=O)[C@@]2(C)CO2)cc1 [Compound C-1079, (1r,4R)-N-((R)-1-(((2S,3R)-1-(((S)-3-cyclopentyl-1-((R)-2-methyloxiran-2-yl)-1-oxopropan-2-yl)amino)-3-hydroxy-3-(4-methoxyphenyl)-1-oxopropan-2-yl)amino)-1-oxopropan-2-yl)-4-hydroxycyclohexanecarboxamide]
6 | 457 µg/mL (≈ 0.769 mM) | – | – | 16.8 nM | 205 nM | COc1ccc(C[C@H](NC(=O)[C@@H](C)NC(=O)[C@H]2CC[C@H](O)CC2)C(=O)N[C@@H](Cc2ccc(C)cc2)C(=O)[C@@]2(C)CO2)cc1 [Compound C-1190]
7 | 1860 µg/mL (≈ 3.13 mM) | 31 nM | 289 nM | – | – | COc1ccc(C[C@H](NC(=O)[C@H](CC#N)NC(=O)CN2CCOCC2)C(=O)N[C@@H](CC2=CCCC2)C(=O)[C@@]2(C)CO2)cc1 [Compound C-1135, (S)-3-Cyano-N-((S)-1-(((S)-3-(cyclopent-1-en-1-yl)-1-((R)-2-methyloxiran-2-yl)-1-oxopropan-2-yl)amino)-3-(4-methoxyphenyl)-1-oxopropan-2-yl)-2-(2-morpholinoacetamido)propanamide]
8 | 1520 µg/mL (≈ 2.4 mM) | 315 nM | 4170 nM | – | – | COc1ccc(C[C@H](NC(=O)[C@H](C)NC(=O)CN2CCS(=O)(=O)CC2)C(=O)N[C@@H](CC2=CCCCC2)C(=O)[C@@]2(C)CO2)cc1 [Compound C-1127, (S)-N-((S)-3-(cyclohex-1-en-1-yl)-1-((R)-2-methyloxiran-2-yl)-1-oxopropan-2-yl)-2-((S)-2-(2-(1,1-dioxidothiomorpholino)acetamido)propanamido)-3-(4-methoxyphenyl) propanamide]
9 | 1760 µg/mL (≈ 3.01 mM) | – | 9330 nM | – | – | COc1ccc(C[C@H](NC(=O)[C@H](C)NC(=O)CN2CCOCC2)C(=O)N[C@@H](CC2=CCCCC2)C(=O)[C@@]2(C)CO2)cc1 [Compound C-1019, (S)-N-((S)-3-(cyclohex-1-en-1-yl)-1-((R)-2-methyloxiran-2-yl)-1-oxopropan-2-yl)-3-(4-methoxyphenyl)-2-((S)-2-(2-morpholinoacetamido)propanamido)propanamide]
10 | – | 60.5 nM | 4050 nM | – | – | COc1ccc(C[C@H](NC(=O)[C@@H](C)NC(=O)[C@H]2CC[C@H](O)CC2)C(=O)N[C@@H](CC2CCCC2)C(=O)[C@@]2(C)CO2)cc1 [Compound C-1064, (1r,4R)-N-((R)-1-(((S)-1-(((S)-3-cyclopentyl-1-((R)-2-methyloxiran-2-yl)-1-oxopropan-2-yl)amino)-3-(4-methoxyphenyl)-1-oxopropan-2-yl)amino)-1-oxopropan-2-yl)-4-hydroxycyclohexanecarboxamide]
11 | – | 25.2 nM | 1180 nM | – | – | COc1ccc([C@@H](O)[C@H](NC(=O)[C@@H](C)NC(=O)[C@H]2CC[C@H](O)CC2)C(=O)N[C@@H](CC2=CCCC2)C(=O)[C@@]2(C)CO2)cc1 [Compound C-1080, (1r,4R)-N-((R)-1-(((2S,3R)-1-(((S)-3-(cyclopent-1-en-1-yl)-1-((R)-2-methyloxiran-2-yl)-1-oxopropan-2-yl)amino)-3-hydroxy-3-(4-methoxyphenyl)-1-oxopropan-2-yl)amino)-1-oxopropan-2-yl)-4-hydroxycyclohexanecarboxamide]

More lines, now with the values behind:

Row | Structure (SMILES) | solubility (Solubility pH 7) | IC50 [1, 3] | IC50 [2] | IC50 [1, 4] | IC50 [2, 5]
12 | COc1ccc(C[C@H](NC(=O)[C@H](CO)NC(=O)CN2CCOCC2)C(=O)N[C@@H](CC2=CCCCC2)C(=O)[C@@]2(C)CO2)cc1O [Compound C-1109, (S)-N-((S)-3-(Cyclohex-1-en-1-yl)-1-((R)-2-methyloxiran-2-yl)-1-oxopropan-2-yl)-2-((S)-3-hydroxy-2-(2-morpholinoacetamido)propanamido)-3-(3-hydroxy-4-methoxyphenyl)propanamide] | 3820 µg/mL (≈ 6.2 mM) | 181 nM | 4090 nM | – | –
13 | COc1ccc(C[C@H](NC(=O)[C@@H](COCc2ccccc2)NC(=O)CN2CCOCC2)C(=O)N[C@@H](Cc2ccccc2)C(=O)[C@@]2(C)CO2)cc1 [Compound C-1156] | – | – | – | 50.8 nM | 175 nM
14 | COc1ccc(C[C@H](NC(=O)[C@H](C)NC(=O)CN2CCOCC2)C(=O)N[C@@H](CC2CC=CC2)C(=O)[C@@]2(C)CO2)cc1 [Compound C-1066, (S)-N-((S)-3-(cyclopent-3-en-1-yl)-1-((R)-2-methyloxiran-2-yl)-1-oxopropan-2-yl)-3-(4-methoxyphenyl)-2-((S)-2-(2-morpholinoacetamido)propanamido)propanamide] | 3200 µg/mL (≈ 5.6 mM) | 47.1 nM | 335 nM | – | –
15 | CC[C@H](NC(=O)CN1CCOCC1)C(=O)N[C@@H](Cc1ccc(OC)cc1)C(=O)N[C@@H](CC1CCCC1)C(=O)[C@@]1(C)CO1 [Compound C-1106, (S)-N-((S)-1-(((S)-3-cyclopentyl-1-((R)-2-methyloxiran-2-yl)-1-oxopropan-2-yl)amino)-3-(4-methoxyphenyl)-1-oxopropan-2-yl)-2-(2-morpholinoacetamido)butanamide] | 960 µg/mL (≈ 1.64 mM) | 49.8 nM | 284 nM | – | –
16 | C[C@H](NC(=O)CN1CCOCC1)C(=O)N[C@@H](Cc1ccc2[nH]ccc2c1)C(=O)N[C@@H](CC1CCCC1)C(=O)[C@@]1(C)CO1 [Compound C-1123, (S)-N-((S)-3-cyclopentyl-1-((R)-2-methyloxiran-2-yl)-1-oxopropan-2-yl)-3-(1H-indol-5-yl)-2-((S)-2-(2-morpholinoacetamido)propanamido)propanamide] | 1470 µg/mL (≈ 2.52 mM) | – | – | – | –
17 | COc1ccc(C[C@H](NC(=O)[C@H](C)NC(=O)CN2CCOCC2)C(=O)N[C@@H](C[C@H]2[C@@H]3CCC[C@@H]32)C(=O)[C@@]2(C)CO2)cc1 [Compound C-1142, (S)-N-((S)-3-((1R,5S,6r)-bicyclo[3.1.0]hexan-6-yl)-1-((R)-2-methyloxiran-2-yl)-1-oxopropan-2-yl)-3-(4-methoxyphenyl)-2-((S)-2-(2-morpholinoacetamido)propanamido)propanamide] | 2340 µg/mL (≈ 4 mM) | – | – | – | –
18 | CC#CC[C@H](NC(=O)[C@H](Cc1ccc(OC)cc1)NC(=O)[C@H](C)NC(=O)CN1CCOCC1)C(=O)[C@@]1(C)CO1 [Compound C-1228] | 682 µg/mL (≈ 1.26 mM) | – | – | – | –
19 | C[C@H](NC(=O)CN1CCOCC1)C(=O)N[C@@H](Cc1ccc2c(c1)CC(=O)N2)C(=O)N[C@@H](CC1CCCC1)C(=O)[C@@]1(C)CO1 [Compound C-1081, (S)-N-((S)-3-cyclopentyl-1-((R)-2-methyloxiran-2-yl)-1-oxopropan-2-yl)-2-((S)-2-(2-morpholinoacetamido)propanamido)-3-(2-oxoindolin-5-yl)propanamide] | 2760 µg/mL (≈ 4.62 mM) | – | – | – | –
20 | C[C@H](NC(=O)CN1CCOCC1)C(=O)N[C@@H](Cc1ccc2[nH]cnc2c1)C(=O)N[C@@H](CC1CCCC1)C(=O)[C@@]1(C)CO1 [Compound C-1069, (S)-3-(1H-benzo[d]imidazol-5-yl)-N-((S)-3-cyclopentyl-1-((R)-2-methyloxiran-2-yl)-1-oxopropan-2-yl)-2-((S)-2-(2-morpholinoacetamido)propanamido)propanamide] | 3540 µg/mL (≈ 6.08 mM) | – | – | – | –

From patent USRE47302E1 (ONYX THERAPEUTICS INC., priority 2013, dated 2019)
